Laboratory results as given in US7723328B2, “Methods of facilitating cell survival using neurotrophin mimetics” (The University of North Carolina at Chapel Hill, priority 2005, dated 2010).
“Also recorded” adds a separate entry of the source.

Tests used:
[1] = tested on: E16-17 mouse hippocampal neurons; test: Hippocampal neuron survival (morphology plus MTT conversion); assay type: cell-based
Protocol: Hippocampal neurons were prepared from E16-17 mouse embryos as previously described (Yang. T. et al. (2003) J Neurosci 23, 3353-3363). […] For studies employing p75^NTR+/+ and p75^NTR−/− neurons, mice carrying a mutation in exon 3 of the p75^NTR gene (Lee, K. F. et al. (1992) Cell 69, 737-749) were bred onto a B6 congenic background (>10 B6 backcrosses).
After 48 hours in culture, cell survival was assessed as previously described (Longo, F. M., Manthorpe. M., Xie. Y. M., Varon, S. (1997) J Neurosci Res 48, 1-17) using a combination of standard morphological criteria along with visual determination of whether a given cell converted MTT to its blue formazan product. The number of surviving neurons was determined by counting the total number of cells in each well that were both morphologically intact and filed with blue product (Longo F. M., Manthorpe. M., Xie, Y. M., Varon, S. (1997) J Neurosci Res 48, 1-17). For each neurotrophin or compound concentration, duplicate wells were counted and the resulting values averaged. Activity of each compound was confirmed by blinded counts. Counts were normalized to survival achieved with 25 ng/ml BDNF or to baseline survival. Fitting of dose-responsive curves was performed with Sigmaplot obtained from SYSTAT Software Inc. (Richmond, Calif., United States of America).

[2] = target: T1, p75^NTR-Fc (Homo sapiens, UniProt P08138); test: NGF/p75NTR-Fc binding by NGF ELISA, Gaddum/Schild fit
T1 construct: purchased R&D Systems
Protocol: (§1) Briefly, 96-well plates were incubated with 0.1 pmol (at 1 nM) of p75/Fc or TrkA/Fc recombinant protein obtained from R&D System (Minneapolis, Minn., United States of America) overnight at 4° C. followed by incubation with blocking buffer for 1 hour at room temperature. […] Plates were then washed five times with Tris-buffered saline (TBS) containing 0.05% Tween-20 and incubated with anti-NGF rabbit polyclonal antibody overnight at 4° C. Following five washes with TBS, wells were incubated for 2.5 hours at room temperature with anti-rabbit IgG HRP conjugate and washed five times. 3,3′,5,5′-tetramethyl-benzidine substrate was added and the optical density measured at 450 nm.
A regression analysis of NGF-p75^NTR binding in the presence of the p75-binding compounds was performed. The data was fit using the Nonlinear Regression module of Sigmaplot, to a modification of the Gaddum/Schild equation (adapted from Motulsky, H. J., and Christopoulos. A. (2003) A Practical Guide to Curve Fitting, 2nd edn. (San Diego, Calif., GraphPad Software, Inc.): […]

[3] = tested on: TrkA-Fc; test: NGF/TrkA-Fc binding by NGF ELISA; conditions: up to 10,000 nM compound
Protocol: as §1

[4] = target: T2, TrkA (Homo sapiens, UniProt P04629); test: Trk Y490 phosphorylation western blot in TrkA-expressing 3T3 cells; assay type: cell-based
T2 construct: expressed in transfected cells; host or cells: 3T3 cells (3T3-TrkA)
Protocol: (§2) Lysates were centrifuged, the supernatant collected, and protein concentrations determined using the BCA Protein Assay Reagent obtained from Pierce (Rockford, Ill., United States of America). Western blots were performed as described previously (Yang, T. et al. (2003) J Neurosci 23, 3353-3363). Western blot signals were detected using the ECL Chemiluminescence System obtained by Amersham (Piscataway, N.J., United States of America) (Yang, T. et al. (2003) J Neurosci 23, 3353-3363).

[5] = tested on: AKT; test: AKT activation western blot in hippocampal cultures; assay type: cell-based, mouse; conditions: 20 nM, relative to NGF
Protocol: For assays of Trk, AKT, NFκB, and ERK activation, hippocampal neurons derived from E16-17 mice were cultured in poly-L-lysine coated six-well plates (Corning, Inc., Corning, N.Y., United States of America) in DMEM containing 10% FBS, followed by incubation in serum-free DMEM for 2 hours before addition of neurotrophins or compounds. At the indicated time points, neurons were harvested in lysis buffer consisting of: 20 mM Tris, pH 8.0, 137 mM NaCl, 1% Igepal CA-630, 10% glycerol, 1 mM PMSF, 10 μg/ml aprotinin, 1 μg/ml leupeptin, 500 μM orthovanadate (Zhou, J., Valletta, J. S., Grimes, M. L., Mobley, W. C. (1995) J Neurochem 65, 1146-1156).
as §2

[6] = tested on: mature oligodendrocytes; test: Oligodendrocyte cell death assay (MBP/TUNEL) with or without proNGF; assay type: cell-based, rat; conditions: 24 h
Protocol: Cortical oligondendrocytes from rat pups were prepared as previously described (Yoon et al. (1998) J Neurosci 18, 3273-3281, Harrington, A. W., Kim, J. Y., Yoon, S. O. (2002) J Neurosci 22, 156-166). Cells were treated with recombinant, cleavage-resistant proNGF at 0.05 nM (2.8 ng/ml). Controls were treated with equivalent volumes of proNGF purification buffer containing 350 mM imidazole. 24 hours after treatment, the cells were fixed and processed for MBP and TUNEL staining as previously described (Beattie, M. S. et al. (2002) Neuron 36, 375-386). 200-250 cells were counted per well, for a minimum of 600 cells per experimental condition.

[7] = tested on: E17 hippocampal neurons; test: Aβ-induced death of hippocampal neurons; assay type: cell-based; conditions: Aβ1-42 10 μM; NGF at 100 pg/ml
Protocol: Using previously well established protocols, Aβ was preincubated for 3 days in water to allow formation of oligomers. E17 hippocampal neurons were incubated for 5 days to allow for maturation prior to addition of Aβ with test compounds.

[8] = tested on: cortical and septal neurons; test: Aβ-induced degeneration of cortical and septal neurons; assay type: cell-based
[9] = Age-related hair loss in middle-aged male mice; assay type: in vivo
[10] = Preliminary studies of oral uptake and blood-brain barrier penetration; assay type: in vivo

T1 sequence (P08138 with tags, fused parts or gaps limits assumed): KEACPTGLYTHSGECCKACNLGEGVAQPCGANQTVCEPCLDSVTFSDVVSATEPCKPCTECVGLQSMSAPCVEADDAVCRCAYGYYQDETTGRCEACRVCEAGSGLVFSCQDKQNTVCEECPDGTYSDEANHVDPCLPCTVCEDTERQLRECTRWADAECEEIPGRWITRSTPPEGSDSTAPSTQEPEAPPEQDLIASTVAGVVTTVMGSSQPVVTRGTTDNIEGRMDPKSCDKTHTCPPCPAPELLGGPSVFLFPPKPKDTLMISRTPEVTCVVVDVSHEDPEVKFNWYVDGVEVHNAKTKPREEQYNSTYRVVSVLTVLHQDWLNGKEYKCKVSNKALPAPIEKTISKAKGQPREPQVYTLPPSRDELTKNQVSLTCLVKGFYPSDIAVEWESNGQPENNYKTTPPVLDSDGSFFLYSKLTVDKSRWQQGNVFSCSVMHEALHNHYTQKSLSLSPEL
T2 sequence (P04629 33-796, species assumed): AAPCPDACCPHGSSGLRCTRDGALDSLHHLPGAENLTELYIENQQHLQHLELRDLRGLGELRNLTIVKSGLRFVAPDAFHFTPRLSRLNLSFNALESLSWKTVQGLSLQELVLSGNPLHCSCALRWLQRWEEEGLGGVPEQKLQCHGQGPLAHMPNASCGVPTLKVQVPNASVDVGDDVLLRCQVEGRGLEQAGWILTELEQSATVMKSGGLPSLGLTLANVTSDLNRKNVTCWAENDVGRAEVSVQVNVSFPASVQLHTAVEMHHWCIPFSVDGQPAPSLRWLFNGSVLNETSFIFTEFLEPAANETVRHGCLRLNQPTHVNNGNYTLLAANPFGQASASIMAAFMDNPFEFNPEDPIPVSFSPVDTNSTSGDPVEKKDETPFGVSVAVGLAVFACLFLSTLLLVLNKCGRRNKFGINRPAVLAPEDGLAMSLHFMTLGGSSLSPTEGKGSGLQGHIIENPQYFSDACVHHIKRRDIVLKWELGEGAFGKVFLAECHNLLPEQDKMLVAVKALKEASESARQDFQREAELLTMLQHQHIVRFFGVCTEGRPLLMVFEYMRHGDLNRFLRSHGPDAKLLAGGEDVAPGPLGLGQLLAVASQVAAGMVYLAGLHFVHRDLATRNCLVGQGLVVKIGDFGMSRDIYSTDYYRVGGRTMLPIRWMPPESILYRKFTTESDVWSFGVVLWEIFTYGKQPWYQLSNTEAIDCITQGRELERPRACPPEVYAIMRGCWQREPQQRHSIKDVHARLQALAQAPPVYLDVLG

CCC(C)C(N)C(=O)NCCN1CCOCC1 (stereo not drawn) [Compound 4]
additive effect on survival with NGF ([1]; 5 nM compound along with 50 ng/ml NGF): no additive effect on survival | EC50 ([1]; Mus musculus, Hippocampal neuron, dose-response, FIG. 2b, read-out: EC50 of survival-promoting (biologic) effect): ~0.15 nM | A2 relative to EC50 of biologic effect [2]: nearly four orders of magnitude greater | compound concentration at which binding curve differs from 0 nM curve (P<0.0001) ([2]; ANOVA with post-hoc Bonferroni/Dunn): ≥ 500 nM | Schild coefficient ([2]; Gaddum-Schild fit): 0.58 +/−0.04 | shift of the NGF/p75NTR-Fc binding curve ([2]; increasing compound concentrations): significantly to the right | effect on NGF binding to TrkA-Fc [3]: did not affect; also recorded: no compound effects up to 10,000 nM | TrkA activation (Trk Y490 phosphorylation) [4]: no detectable activation | onset of AKT activation [5]: slower than that of NGF | inhibition of proNGF-induced oligodendrocyte death ([6]; 2.8 ng/ml (0.05 nM) proNGF): significantly inhibited; also recorded: blocked cell death | promotion of oligodendrocyte cell death by compound alone ([6]; absence of proNGF): did not promote cell death | protection against Aβ1-42-induced death [7]: entirely block | block of Aβ-induced degeneration of cortical and septal neurons [8]: block Aβ-induced degeneration of cortical and septal neurons | mice with hair loss, studies taken together ([9]; both studies pooled, p 0.001 Fisher's Exact test vs vehicle): 0 of 14 | mice with hair loss ([9]; follow up study, middle-aged male mice, 2-month time point): 0 of 9 | mice with age-related hair loss ([9]; three-month toxicology trial, male mice): 0 of 5 | blood-brain barrier penetration [10]: blood-brain barrier penetration | oral uptake [10]: significant oral uptake
